Laboratory results reported in US11977068B2, “Method for testing ecotoxicity of disinfection by-products” (priority 2020, dated 2024).

Assays:
[1] = system: brine shrimp; experiment: Acute toxicity test on second-instar brine shrimp (survival/mortality); conditions: for minimum effective concentration (defined as the concentration causing 20% death): second-instar brine shrimp
Description: (§1) S1, anhydrous freeze-dried eggs of a brine shrimp are hatched in artificial seawater to obtain a first-instar brine shrimp, where, a hatching temperature is (26±1)° C., the hatching is performed under a continuous aeration for a hatching time of (10-24) h, and an aeration gas source is air. After the hatching is finished, the first-instar brine shrimp and non-hatched brine shrimp eggs are separated immediately, and the first-instar brine shrimp is placed in the artificial seawater. The brine shrimp at different life stages may have different tolerance to toxicity, and therefore, a separation of the brine shrimp at different instars can avoid the instability of experimental results. S2, the first-instar brine shrimp is cultured in a light incubator for 24 h to obtain a second-instar brine shrimp, where, a culture temperature is (26±1)° C., a light time and a dark time are respectively continuous 12 h, and a light intensity in the light incubator is (1,000-3,000) Lux. S3. First, the second-instar brine shrimp is pre-placed in a water sample to be tested containing toxic substances and exposed for a predetermined time to enable the artificial seawater carried by the second-instar brine shrimp to mix uniformly with the water sample to be tested, and then the second-instar brine shrimp is put into a culture plate containing the water sample to be tested for an acute toxicity test with a time end-point of (42-54) h and a chronic toxicity test with a time end-point of (12-16) days. After the time end-point of the toxicity test is reached, the culture plate is slightly vibrated to observe the survival of the brine shrimp in each well. […] A mortality rate of the brine shrimp is obtained to calculate the toxicity of the water sample to the brine shrimp.
(§2) Hatching of a brine shrimp: 3-5 g of anhydrous freeze-dried eggs of the brine shrimp is put into a 1,500 mL beaker containing 1,200 mL of seawater. The opening of the beaker is sealed with aluminum foil and the beaker is placed in a constant temperature water bath at (26±1)° C. A small air pump is used to blow air for aeration and hatching for 12 h. After the hatching is finished, the first-instar brine shrimp is randomly picked out with a Pasteur pipette immediately and placed in a 150 mm crystallization dish containing sufficient seawater.
(§3) Culture of the brine shrimp: the first-instar brine shrimp is cultured in a light incubator for 24 h. The conditions in the light incubator are as follows: a temperature is (25±1)° C., a light intensity is 1,000 Lux, and a light time and a dark time are respectively continuous 12 h.
(§4) Acute toxicity test: 150 mL of each water sample to be tested is put into a brown bottle, four groups of the water samples with different concentrations of IAM are added into a 12-well culture plate with a pipette, with 2.5 mL of liquid in each well, and each 3 wells is an experimental group with the same concentration of the water samples. The remaining solution in each brown bottle is poured into a clean 150 mm crystallization dish. At least 30 second-instar brine shrimps are transferred into 100-150 mL of the water sample to be tested at one time by the Pasteur pipette in the crystallizing dish, respectively. The second-instar brine shrimps that have been exposed to the solution are transferred by the Pasteur pipette to the culture wells with 10 second-instar brine shrimps in each well. The culture plate is cultured in light. The survival of the brine shrimps in each well is observed after 48 h. The time difference of transferring brine shrimps within and between groups should be shortened as far as possible to avoid the influence of excessive time difference on brine shrimp growth.

[2] = as above; conditions: brine shrimp (Artemia), in vivo, other: immersion in the water sample in culture wells
Description: as §1, §2, §3, §4

[3] = system: brine shrimp; experiment: Chronic toxicity test on second-instar brine shrimp (survival/mortality)
Description: as §1
The remaining solution in each brown bottle is poured into a clean 150 mm crystallization dish. […] The culture plate is cultured in light. […] The time difference of transferring brine shrimps within and between groups should be shortened as far as possible to avoid the influence of excessive time difference on brine shrimp growth.

| Compound | impact on the survival of brine shrimp in a short period ([1]; 59.588 μM, 54 h) | minimum effective concentration (defined as the concentration causing 20% death) ([1]; 54 h exposure, fitted from FIG. 3 data) | LC50 at 54 h [2] | mortality rate ([3]; 59.588 μM (acute minimum effective concentration), 16 days exposure) | survival rate of brine shrimp ([3]; 59.588 μM, 16 days exposure) | impact on the survival of brine shrimp in a short period ([1]; 544.5 μM, 48 h) | minimum effective concentration (defined as the concentration causing 20% death) ([1]; 48 h exposure, fitted from FIG. 2 data) | LC50 at 48 h [2] | mortality rate ([3]; 544.5 μM (acute minimum effective concentration), 14 days exposure) | survival rate of brine shrimp ([3]; 544.5 μM, 14 days exposure) |
| --- | --- | --- | --- | --- | --- | --- | --- | --- | --- | --- |
| O=C(O)CI [IAA, iodoacetic acid] | does not cause significant impact on the survival | 59.588 µM | 1050 µM | 100% | 0 | – | – | – | – | – |
| NC(=O)CI [IAM, iodoacetamide] | – | – | – | – | – | does not cause significant impact on the survival | 544.5 µM | 557 µM | 100% | 0 |
